Assay results reported in ChEMBL document CHEMBL5357027, “Annonaceous Acetogenins Synergistically Inhibit Hepatocellular Carcinoma with Sorafenib” (J Nat Prod, 2024).
The source made the active and inactive calls. The rule behind the calls is not given here.

Legend:
HepG2 [1] = experiment: Cytotoxicity against human HepG2 cells assessed as cell growth inhibition incubated for 48 hrs by MTT assay; assay type: functional, cell-based; conditions: HepG2, 48 h
Huh-7 [2] = experiment: Cytotoxicity against human Huh-7 cells assessed as cell growth inhibition incubated for 48 hrs by MTT assay; assay type: functional, cell-based; conditions: Huh-7, 48 h
MHCC97H [3] = experiment: Cytotoxicity against human MHCC97H cells assessed as cell growth inhibition incubated for 48 hrs by MTT assay; assay type: functional, cell-based
HCCLM3 [4] = experiment: Cytotoxicity against human HCCLM3 cells assessed as cell growth inhibition incubated for 48 hrs by MTT assay; assay type: functional, cell-based; conditions: HCCLM3, 48 h
HCCLM3 [5] = experiment: Inhibition of mitochondrial respiratory chain complex I in human HCCLM3 incubated for 24 hrs; assay type: cell-based
HepG2 [6] = experiment: Synergistic cytotoxicity against human HepG2 cells assessed as cell growth inhibition by measuring synergy score at 1 to 16 uM incubated for 48 hrs in presence of sorafenib at 1 to 16 uM by MTT assay; assay type: functional; conditions: dose 1-16 µM
Huh-7 [7] = experiment: Synergistic cytotoxicity against human Huh-7 cells assessed as cell growth inhibition by measuring synergy score at 1 to 16 uM incubated for 48 hrs in presence of sorafenib at 1 to 16 uM by MTT assay; assay type: functional; conditions: dose 1-16 µM
MHCC97H [8] = experiment: Synergistic cytotoxicity against human MHCC97H cells assessed as cell growth inhibition by measuring synergy score at 1 to 16 uM incubated for 48 hrs in presence of sorafenib at 1 to 16 uM by MTT assay; assay type: functional; conditions: dose 1-16 µM
HCCLM3 [9] = experiment: Synergistic cytotoxicity against human HCCLM3 cells assessed as cell growth inhibition by measuring synergy score at 1 to 16 uM incubated for 48 hrs in presence of sorafenib at 1 to 16 uM by MTT assay; assay type: functional; conditions: dose 1-16 µM
HepG2 [10] = experiment: Inhibition of mitochondrial function in human HepG2 cells assessed as reduction in ATP production at 16 uM incubated for 48 hrs relative to control; assay type: functional; design: scale not given: the % may be the effect or the level left
Huh-7 [11] = experiment: Inhibition of mitochondrial function in human Huh-7 cells assessed as reduction in ATP production at 16 uM incubated for 48 hrs relative to control; assay type: functional; design: scale not given: the % may be the effect or the level left
MHCC97H [12] = experiment: Inhibition of mitochondrial function in human MHCC97H cells assessed as reduction in ATP production at 16 uM incubated for 48 hrs relative to control; assay type: functional; design: scale not given: the % may be the effect or the level left
HCCLM3 [13] = experiment: Inhibition of mitochondrial function in human HCCLM3 cells assessed as reduction in ATP production at 16 uM incubated for 48 hrs relative to control; assay type: functional; design: scale not given: the % may be the effect or the level left
HCCLM3 [14] = experiment: Induction of apoptosis in human HCCLM3 cells assessed as necrotic cells at 4 uM incubated for 48 hrs by Annexin V/FITC-PI staining based flow cytometry (reference value: 3.33%); assay type: functional
HCCLM3 [15] = experiment: Induction of apoptosis in human HCCLM3 cells assessed as late apoptotic cells at 4 uM incubated for 48 hrs by Annexin V/FITC-PI staining based flow cytometry (reference value: 0.07%); assay type: functional
HCCLM3 [16] = experiment: Induction of apoptosis in human HCCLM3 cells assessed as early apoptotic cells at 4 uM incubated for 48 hrs by Annexin V/FITC-PI staining based flow cytometry (reference value: 0.05%); assay type: functional
HCCLM3 [17] = experiment: Induction of apoptosis in human HCCLM3 cells assessed as viable cells at 4 uM incubated for 48 hrs by Annexin V/FITC-PI staining based flow cytometry (reference value: 96.55%); assay type: functional; conditions: read-out: Activity
HepG2 [18] = experiment: Synergistic inhibition of mitochondrial function in human HepG2 cells assessed as reduction in intracellular ATP level at 8 uM incubated for 48 hrs in presence of 16 uM sorafenib; assay type: functional, cell-based
Huh-7 [19] = experiment: Synergistic inhibition of mitochondrial function in human Huh-7 cells assessed as reduction in intracellular ATP level at 8 uM incubated for 48 hrs in presence of 16 uM sorafenib; assay type: functional, cell-based
MHCC97H [20] = experiment: Synergistic inhibition of mitochondrial function in human MHCC97H cells assessed as reduction in intracellular ATP level at 8 uM incubated for 48 hrs in presence of 16 uM sorafenib; assay type: functional, cell-based
HCCLM3 [21] = experiment: Synergistic inhibition of mitochondrial function in human HCCLM3 cells assessed as reduction in intracellular ATP level at 8 uM incubated for 48 hrs in presence of 16 uM sorafenib; assay type: functional, cell-based
HCCLM3 [22] = experiment: Induction of apoptosis in human HCCLM3 cells assessed as viable cells at 4 uM incubated for 48 hrs in presence of 4uM sorafenib by Annexin V/FITC-PI staining based flow cytometry (reference value: 96.55%); assay type: functional; conditions: read-out: Activity
HCCLM3 [23] = experiment: Induction of apoptosis in human HCCLM3 cells assessed as early apoptotic cells at 4 uM incubated for 48 hrs in presence of 4uM sorafenib by Annexin V/FITC-PI staining based flow cytometry (reference value: 0.05%); assay type: functional
HCCLM3 [24] = experiment: Induction of apoptosis in human HCCLM3 cells assessed as late apoptotic cells at 4 uM incubated for 48 hrs in presence of 4uM sorafenib by Annexin V/FITC-PI staining based flow cytometry (reference value: 0.07%); assay type: functional
HCCLM3 [25] = experiment: Induction of apoptosis in human HCCLM3 cells assessed as necrotic cells at 4 uM incubated for 48 hrs in presence of 4uM sorafenib by Annexin V/FITC-PI staining based flow cytometry (reference value: 3.33%); assay type: functional
HCCLM3 [26] = experiment: Induction of apoptosis in human HCCLM3 cells assessed as apoptotic ratio at 4 uM incubated for 48 hrs in presence of 4uM sorafenib by Annexin V/FITC-PI staining based flow cytometry relative to control; assay type: functional
HepG2 [27] = experiment: Inhibition of mitochondrial function in human HepG2 cells assessed as reduction in ATP production at 8 uM incubated for 48 hrs; assay type: functional, cell-based
Huh-7 [28] = experiment: Inhibition of mitochondrial function in human Huh-7 cells assessed as reduction in ATP production at 8 uM incubated for 48 hrs; assay type: functional, cell-based
MHCC97H [29] = experiment: Inhibition of mitochondrial function in human MHCC97H cells assessed as reduction in ATP production at 8 uM incubated for 48 hrs; assay type: functional, cell-based
HCCLM3 [30] = experiment: Inhibition of mitochondrial function in human HCCLM3 cells assessed as reduction in ATP production at 8 uM incubated for 48 hrs; assay type: functional, cell-based

| Compound | IC50 (HepG2 [1]) [µM] | IC50 (Huh-7 [2]) [µM] | IC50 (MHCC97H [3]) [µM] | IC50 (HCCLM3 [4]) [µM] | inhibition (HCCLM3 [5]) | Activity (HepG2 [6]) | Activity (Huh-7 [7]) | Activity (MHCC97H [8]) | Activity (HCCLM3 [9]) | Activity (HCCLM3 [14]) [%] | Activity (HCCLM3 [15]) [%] | Activity (HCCLM3 [16]) [%] | viability at 4 µM (HCCLM3 [17]) [%] | further results |
| --- | --- | --- | --- | --- | --- | --- | --- | --- | --- | --- | --- | --- | --- | --- |
| CCCCCCCCCCCC[C@@H](O)[C@H]1CC[C@H]([C@H](O)CCCCC(=O)CCCCC[C@@H](O)CC2=C[C@H](C)OC2=O)O1 [ANNONACINONE] | 15.5 | 15.5 | 15.5 | 15.5 | Active | 3.4 | 3.4 | 3.4 | 3.4 | – | – | – | – | – |
| CNC(=O)c1cc(Oc2ccc(NC(=O)Nc3ccc(Cl)c(C(F)(F)F)c3)cc2)ccn1 [SORAFENIB] | – | – | – | – | – | – | – | – | – | 1.57 | 0.67 | 3.59 | 94.2 | Activity (HepG2 [10]): 69.5%; Activity (Huh-7 [11]): 41.1%; Activity (MHCC97H [12]): 54.4%; Activity (HCCLM3 [13]): 77.4% |
| CCCCCCCCCC[C@H](O)[C@@H](O)C[C@H](O)[C@@H]1CC[C@@H](CCCCCCCCCC[C@@H](O)CC2=C[C@H](C)OC2=O)O1 | > 50 | > 50 | > 50 | > 50 | Active | 3.7 | 7.1 | 17 | 13.9 | 1.36 | 0.17 | 1.27 | 97.2 | inhibition (HepG2 [18]): Active; inhibition (Huh-7 [19]): Active; inhibition (MHCC97H [20]): Active; Activity (HCCLM3 [21]): Active; viability at 4 µM (HCCLM3 [22]): 80.5%; Activity (HCCLM3 [23]): 8.66%; Activity (HCCLM3 [24]): 6.45%; Activity (HCCLM3 [25]): 4.44%; Activity (HCCLM3 [26]): 11.6%; inhibition (HepG2 [27]): Active; inhibition (Huh-7 [28]): Active; inhibition (MHCC97H [29]): Active; inhibition (HCCLM3 [30]): Active |
| CCCCCCCCCC[C@@H](O)[C@H](O)C[C@@H](O)[C@H]1CC[C@H](CCCCCCCCCC[C@@H](O)CC2=C[C@H](C)OC2=O)O1 | > 50 | > 50 | > 50 | > 50 | Active | 2.7 | 2.7 | 2.7 | 2.7 | – | – | – | – | – |
